Test results taken from patent US7270767B1, “Environmentally friendly de-icer and anti-icer compositions” (priority 1999, dated 2007).
Like-named read-outs stand apart in the source and are kept apart here.

Experiments:
Rat = conditions: cited from earlier work
D. Magnia = experiment: Acute aquatic toxicity, 48 hr LC50; type: in vivo, daphnia magna
Excerpt: The present invention provides for deicing and anti-icing compositions that are environmentally advantaged.
As aforesaid, there are environmental issues associated with deicers and anti-icers, mostly as a result of the type of FPD used. Freezing point depressants are typically toxic to mammals. Ethylene glycol, in particular, is toxic to mammals (see rat LD50 data, Table 3). LC50, refers to Lethal Concentration, 50%, which is the concentration of a substance at which 50% of the population of test organisms die. Ethylene glycol has also been listed by the EPA as a hazardous air pollutant (HAP).
Another aspect of concern is the toxicity of FPDs on aquatic life and environment. […] (see Table 4, FPD aquatic toxicity data).

Surface tension = type: physicochemical
Excerpt: Surfactants by their very nature can have toxic effects on aquatic organisms. They can coat surfaces or membranes required for the organism's oxygen exchange with the environment. Thus, it is advantageous for surfactants to degrade rapidly in the environment once their useful purpose has been served. Preferred surfactants for use in the present formulations have low aquatic toxicity (Table 4) and are biodegradable (see FIG. 2). Preferably they are soluble or dispersible in water, so that they form homogenous solutions or mixtures with the FPD/water mixtures in the fluid. Also it is preferred that the surfactant reduces the surface tension of the fluid below 35 dynes/cm (see surface tension, Table 6).

Compound	Acute tox. to D. Magnia, ppm (48 hr LC50) (D. Magnia)	further results
OCCOCCOCCO [Triethylene glycol]	66,000 ppm	Rat Acute Oral Toxicity (LD50, g/kg) (Rat; in vivo, po): 17 g/kg
OCCO [Ethylene glycol, reference compound]	77,000 ppm	–
PEG-20 sorbitan oleate	46,000 ppm	–
PEG-12 oleate	13,000 ppm	–
O [Water]	–	Surface Tension (dynes/cm) (Surface tension): 75 dynes/cm
CC(O)CO (centres unmarked) [Propylene glycol, reference compound]	55,000 ppm	–
CC(O)CCO (centres unmarked) [1,3 Butanediol, reference compound]	–	Rat Acute Oral Toxicity (LD50, g/kg) (Rat; oral, acute): 18.6 g/kg
